How the values were obtained:
Format in all cases: in vivo
[1] = system: barnyard grass; experiment: Test Example 1: weedkilling efficacy, preemergent weed treatment in the submerged state; A: barnyard grass
Text: (§1) Weedkilling efficacy test on preemergent weed treatment in the submerged state
(§2) Alluvial soil was introduced into 1/10,000 Are Wagner pots, and 4 cm depth submerged conditions were created by addition of water and mixing. Seeds of barnyard grass, bulrush and oval-leafed pondweed were mixed and sown into the aforesaid cups, then 2.5 leaf stage rice seedlings were transplanted. On the sowing day, emulsions of compounds of the present invention prepared according to compounding example 2 were diluted with water to give the specified dosages and applied onto the water surface. The plants were grown after placing the cups in a greenhouse at 25 to 30° C. 3 weeks after the pesticide treatment the effect on each type of plant was investigated on the basis of the following assessment criteria.
(§3) A: barnyard grass, B: bulrush, C: oval-leafed pondweed, D: crabgrass, E: green foxtail, F: barnyard grass, G: wild oat, H: black-grass, I: Italian ryegrass, J: common wind-grass, K: Indian mallow, L: redroot pigweed, M: fig-leafed goosefoot, N: chickweed, O: catchweed, p: birds-eye speedwell, a: transplanted rice, b: directly sown rice, c: corn, d: soybean, e: wheat, f: beet, g: rapeseed
(§4) Further, pesticide dosage (g/ha) indicates the concentration regulated such that treatment was with only the stated number of grams (g), when calculated per hectare (ha).

[2] = system: bulrush; experiment: Test Example 1: weedkilling efficacy, preemergent weed treatment in the submerged state; B: bulrush
Text: as §1, §2, §3, §4

[3] = system: oval-leafed pondweed; experiment: Test Example 1: weedkilling efficacy, preemergent weed treatment in the submerged state; C: oval-leafed pondweed
Text: as §1, §2, §3, §4

[4] = system: transplanted rice; experiment: Test Example 1: preemergent weed treatment in the submerged state, effect on crop; a: transplanted rice
Text: as §1, §2, §3, §4

[5] = system: barnyard grass; experiment: Test Example 2: weedkilling efficacy, growth period weed treatment in the submerged state; A: barnyard grass
Procedure: (§5) Weedkilling efficacy test on growth period weed treatment in the submerged state
as §2, with “and the plants were grown by placing in a greenhouse at 25 to 30° C. When the barnyard grass, bulrush and oval-leafed pondweed had reached the 1-2” for “then 2.5”, “stage,” for “stage rice seedlings were transplanted. On the sowing day,”, “surface.” for “surface. The plants were grown after placing the cups in a greenhouse at 25 to 30° C.”, “the” for “the following”, “criteria of test example 1.” for “criteria.”
as §3, §4

[6] = system: bulrush; experiment: Test Example 2: weedkilling efficacy, growth period weed treatment in the submerged state; B: bulrush
Procedure: as §5
as §2, with “and the plants were grown by placing in a greenhouse at 25 to 30° C. When the barnyard grass, bulrush and oval-leafed pondweed had reached the 1-2” for “then 2.5”, “stage,” for “stage rice seedlings were transplanted. On the sowing day,”, “surface.” for “surface. The plants were grown after placing the cups in a greenhouse at 25 to 30° C.”, “the” for “the following”, “criteria of test example 1.” for “criteria.”
as §3, §4

[7] = system: oval-leafed pondweed; experiment: Test Example 2: weedkilling efficacy, growth period weed treatment in the submerged state; C: oval-leafed pondweed
Procedure: as §5
as §2, with “and the plants were grown by placing in a greenhouse at 25 to 30° C. When the barnyard grass, bulrush and oval-leafed pondweed had reached the 1-2” for “then 2.5”, “stage,” for “stage rice seedlings were transplanted. On the sowing day,”, “surface.” for “surface. The plants were grown after placing the cups in a greenhouse at 25 to 30° C.”, “the” for “the following”, “criteria of test example 1.” for “criteria.”
as §3, §4

SMILES	A: barnyard grass, weed kill grade ([1]; treatment dosage 320 g/ha)	B: bulrush, weed kill grade ([2]; treatment dosage 320 g/ha)	C: oval-leafed pondweed, weed kill grade ([3]; treatment dosage 320 g/ha)	a: transplanted rice, effect on crop grade ([4]; treatment dosage 320 g/ha)	A (barnyard grass) weedkilling efficacy grade ([5]; treatment dosage 320 g/ha)	B (bulrush) weedkilling efficacy grade ([6]; treatment dosage 320 g/ha)	A: barnyard grass, weed kill grade ([1]; treatment dosage 252 g/ha)	B: bulrush, weed kill grade ([2]; treatment dosage 252 g/ha)	C: oval-leafed pondweed, weed kill grade ([3]; treatment dosage 252 g/ha)	a: transplanted rice, effect on crop grade ([4]; treatment dosage 252 g/ha)	further results
CC(C(=O)Nc1cc(Cl)cc(Cl)n1)N1COCN(c2ccccc2)C1=O (racemic) [A-7-01]											A: barnyard grass, weed kill grade ([1]; treatment dosage 1000 g/ha): 5 (weed kill ratio 90% or more, (practically complete withering)); B: bulrush, weed kill grade ([2]; treatment dosage 1000 g/ha): 5 (weed kill ratio 90% or more, (practically complete withering)); C: oval-leafed pondweed, weed kill grade ([3]; treatment dosage 1000 g/ha): 4 (weed kill ratio 70% or more, less than 90%); a: transplanted rice, effect on crop grade ([4]; treatment dosage 1000 g/ha): 0 (weed kill ratio 5% or less (practically no effect)); A (barnyard grass) weedkilling efficacy grade ([5]; treatment dosage 1000 g/ha): 3 (weed kill ratio 40% or more, less than 70%); B (bulrush) weedkilling efficacy grade ([6]; treatment dosage 1000 g/ha): 5 (weed kill ratio 90% or more, (practically complete withering)); C (oval-leafed pondweed) weedkilling efficacy grade ([7]; treatment dosage 1000 g/ha): 1 (weed kill ratio 5% or more, less than 20%)
Cn1ccc(NC(=O)C(C)(C)N2COCN(c3ccccc3)C2=O)n1 [A-1-03]	0 (weed kill ratio 5% or less (practically no effect))	5 (weed kill ratio 90% or more, (practically complete withering))	2 (weed kill ratio 20% or more, less than 40%)	0 (weed kill ratio 5% or less (practically no effect))	0 (weed kill ratio 5% or less (practically no effect))	2 (weed kill ratio 20% or more, less than 40%)					C (oval-leafed pondweed) weedkilling efficacy grade ([7]; treatment dosage 320 g/ha): 0 (weed kill ratio 5% or less (practically no effect))
CC(C)(C(=O)Nc1ncc([N+](=O)[O-])s1)N1COCN(c2ccccc2)C1=O [A-1-09]	5 (weed kill ratio 90% or more, (practically complete withering))	5 (weed kill ratio 90% or more, (practically complete withering))	4 (weed kill ratio 70% or more, less than 90%)	0 (weed kill ratio 5% or less (practically no effect))	4 (weed kill ratio 70% or more, less than 90%)	5 (weed kill ratio 90% or more, (practically complete withering))					C (oval-leafed pondweed) weedkilling efficacy grade ([7]; treatment dosage 320 g/ha): 5 (weed kill ratio 90% or more, (practically complete withering))
CC(C)(C(=O)Nc1nnc(C(F)(F)F)s1)N1COCN(c2ccccc2)C1=O [A-1-14]	4 (weed kill ratio 70% or more, less than 90%)	5 (weed kill ratio 90% or more, (practically complete withering))	3 (weed kill ratio 40% or more, less than 70%)	1 (weed kill ratio 5% or more, less than 20%)	2 (weed kill ratio 20% or more, less than 40%)	5 (weed kill ratio 90% or more, (practically complete withering))					C (oval-leafed pondweed) weedkilling efficacy grade ([7]; treatment dosage 320 g/ha): 2 (weed kill ratio 20% or more, less than 40%)
CSc1nc(NC(=O)C(C)(C)N2COCN(c3ccccc3)C2=O)ns1 [A-1-17]	2 (weed kill ratio 20% or more, less than 40%)	5 (weed kill ratio 90% or more, (practically complete withering))	3 (weed kill ratio 40% or more, less than 70%)	0 (weed kill ratio 5% or less (practically no effect))	0 (weed kill ratio 5% or less (practically no effect))	4 (weed kill ratio 70% or more, less than 90%)					C (oval-leafed pondweed) weedkilling efficacy grade ([7]; treatment dosage 320 g/ha): 2 (weed kill ratio 20% or more, less than 40%)
CC(C)(C(=O)Nc1nc(Cl)cc(Cl)n1)N1COCN(c2ccccc2)C1=O [A-1-19]							2 (weed kill ratio 20% or more, less than 40%)	3 (weed kill ratio 40% or more, less than 70%)	2 (weed kill ratio 20% or more, less than 40%)	0 (weed kill ratio 5% or less (practically no effect))	A (barnyard grass) weedkilling efficacy grade ([5]; treatment dosage 252 g/ha): 3 (weed kill ratio 40% or more, less than 70%); B (bulrush) weedkilling efficacy grade ([6]; treatment dosage 252 g/ha): 2 (weed kill ratio 20% or more, less than 40%); C (oval-leafed pondweed) weedkilling efficacy grade ([7]; treatment dosage 252 g/ha): 2 (weed kill ratio 20% or more, less than 40%)
CC(C)(C(=O)Nc1nc(Cl)ccc1Cl)N1COCN(c2ccccc2)C1=O [A-2-16]							0 (weed kill ratio 5% or less (practically no effect))	5 (weed kill ratio 90% or more, (practically complete withering))	2 (weed kill ratio 20% or more, less than 40%)	0 (weed kill ratio 5% or less (practically no effect))	
CC(C)(C(=O)Nc1cc(Cl)cc(Cl)n1)N1COCN(c2ccccc2)C1=O [A-2-17]							5 (weed kill ratio 90% or more, (practically complete withering))	5 (weed kill ratio 90% or more, (practically complete withering))	5 (weed kill ratio 90% or more, (practically complete withering))	3 (weed kill ratio 40% or more, less than 70%)	A (barnyard grass) weedkilling efficacy grade ([5]; treatment dosage 252 g/ha): 5 (weed kill ratio 90% or more, (practically complete withering)); B (bulrush) weedkilling efficacy grade ([6]; treatment dosage 252 g/ha): 5 (weed kill ratio 90% or more, (practically complete withering)); C (oval-leafed pondweed) weedkilling efficacy grade ([7]; treatment dosage 252 g/ha): 5 (weed kill ratio 90% or more, (practically complete withering))
COC(=O)c1ccnc(NC(=O)C(C)(C)N2COCN(c3ccccc3)C2=O)c1 [A-2-47]	2 (weed kill ratio 20% or more, less than 40%)	4 (weed kill ratio 70% or more, less than 90%)	0 (weed kill ratio 5% or less (practically no effect))	0 (weed kill ratio 5% or less (practically no effect))							
COc1ccnc(NC(=O)C(C)(C)N2COCN(c3ccccc3)C2=O)c1 [A-2-51]							4 (weed kill ratio 70% or more, less than 90%)	5 (weed kill ratio 90% or more, (practically complete withering))	2 (weed kill ratio 20% or more, less than 40%)	0 (weed kill ratio 5% or less (practically no effect))	
COc1cc(C(F)(F)F)cc(NC(=O)C(C)(C)N2COCN(c3ccccc3)C2=O)n1 [A-2-59]	5 (weed kill ratio 90% or more, (practically complete withering))	5 (weed kill ratio 90% or more, (practically complete withering))	5 (weed kill ratio 90% or more, (practically complete withering))	1 (weed kill ratio 5% or more, less than 20%)							
Cc1cnc(Cl)c(NC(=O)C(C)(C)N2COCN(c3ccccc3)C2=O)c1 [A-3-09]							2 (weed kill ratio 20% or more, less than 40%)	4 (weed kill ratio 70% or more, less than 90%)	0 (weed kill ratio 5% or less (practically no effect))	1 (weed kill ratio 5% or more, less than 20%)	
COc1ccc(N2COCN(C(C)(C)C(=O)Nc3cc(C(F)(F)F)ccn3)C2=O)cc1Cl [A-6-05]	2 (weed kill ratio 20% or more, less than 40%)	2 (weed kill ratio 20% or more, less than 40%)	2 (weed kill ratio 20% or more, less than 40%)	0 (weed kill ratio 5% or less (practically no effect))							
Cc1ccc(N2COCN(C(C)(C)C(=O)Nc3cc(C(F)(F)F)ccn3)C2=O)cc1 [A-6-09]	4 (weed kill ratio 70% or more, less than 90%)	5 (weed kill ratio 90% or more, (practically complete withering))	4 (weed kill ratio 70% or more, less than 90%)	0 (weed kill ratio 5% or less (practically no effect))	3 (weed kill ratio 40% or more, less than 70%)	3 (weed kill ratio 40% or more, less than 70%)					
CC1=C(c2ccnc(F)c2)C(=O)N(C(C)(C)C(=O)Nc2cccc(Cl)n2)CO1 [B-2-21]											A (barnyard grass) weedkilling efficacy grade ([1]; treatment dosage 252 g/ha): 0 (weed kill ratio 5% or less (practically no effect)); B (bulrush) weedkilling efficacy grade ([2]; treatment dosage 252 g/ha): 5 (weed kill ratio 90% or more, (practically complete withering)); C (oval-leafed pondweed) weedkilling efficacy grade ([3]; treatment dosage 252 g/ha): 3 (weed kill ratio 40% or more, less than 70%); a (transplanted rice) effect on crop grade ([4]; treatment dosage 252 g/ha): 0 (weed kill ratio 5% or less (practically no effect))
CC1=C(c2cncnc2)C(=O)N(C(C)(C)C(=O)Nc2cccc(Cl)n2)CO1 [B-2-22]											A (barnyard grass) weedkilling efficacy grade ([1]; treatment dosage 1000 g/ha): 3 (weed kill ratio 40% or more, less than 70%); B (bulrush) weedkilling efficacy grade ([2]; treatment dosage 1000 g/ha): 3 (weed kill ratio 40% or more, less than 70%); C (oval-leafed pondweed) weedkilling efficacy grade ([3]; treatment dosage 1000 g/ha): 1 (weed kill ratio 5% or more, less than 20%); a (transplanted rice) effect on crop grade ([4]; treatment dosage 1000 g/ha): 0 (weed kill ratio 5% or less (practically no effect))

Reference: patent publication US9738634B2, “Heterocyclic amide compound and herbicide” (SYNGENTA PARTICIPATIONS AG, priority 2013, dated 2017)
